In patent publication US8283357B2, “Cycloalkylcarbamate benzamide aniline HDAC inhibitor compounds” (Gilead Sciences, Inc., priority 2009, dated 2012):

Assays:
HDAC-3 = HDAC-3 (Homo sapiens, UniProt O15379); experiment: HDAC-3 inhibitory activity assay (fluorophore/quencher peptide substrate); type: biochemical; conditions: enzyme/compound pre-incubated 2 hours at room temperature; reaction about 45 minutes
Procedure: (§1) HDAC inhibitory activity of the compound of Example 1 was measured by an assay in which HDAC-1 or -3 were used as a target molecule. The test compound was suspended in and titrated in DMSO. It was then spotted into a 384-well test plate. The enzyme, HDAC-1 or -3, was diluted in assay buffer containing 25 mM Tris-HCl (pH 8.0), 137 mM NaCl, 2.7 mM KCl, and 0.01% Tween-20 and added to the pre-spotted compound. The enzyme/compound mix was incubated at room temperature for 2 hours. The peptide substrate containing a fluorophore/quencher pair was diluted in the same assay buffer and added to the compound/enzyme mix initiating the reaction. The reaction incubated at room temperature for about 45 minutes. A concentrated developer solution was diluted in the assay buffer, and added to the reaction. The reaction was incubated at room temperature for about 15 minutes and relative fluorescence was read on an instrument reader.

HDAC-1 = HDAC-1 (Homo sapiens, UniProt Q13547); experiment: HDAC-1 inhibitory activity assay (fluorophore/quencher peptide substrate); type: biochemical; conditions: enzyme/compound pre-incubated 2 hours at room temperature; reaction about 45 minutes
Sequence of HDAC-1 (Q13547 whole entry, species assumed): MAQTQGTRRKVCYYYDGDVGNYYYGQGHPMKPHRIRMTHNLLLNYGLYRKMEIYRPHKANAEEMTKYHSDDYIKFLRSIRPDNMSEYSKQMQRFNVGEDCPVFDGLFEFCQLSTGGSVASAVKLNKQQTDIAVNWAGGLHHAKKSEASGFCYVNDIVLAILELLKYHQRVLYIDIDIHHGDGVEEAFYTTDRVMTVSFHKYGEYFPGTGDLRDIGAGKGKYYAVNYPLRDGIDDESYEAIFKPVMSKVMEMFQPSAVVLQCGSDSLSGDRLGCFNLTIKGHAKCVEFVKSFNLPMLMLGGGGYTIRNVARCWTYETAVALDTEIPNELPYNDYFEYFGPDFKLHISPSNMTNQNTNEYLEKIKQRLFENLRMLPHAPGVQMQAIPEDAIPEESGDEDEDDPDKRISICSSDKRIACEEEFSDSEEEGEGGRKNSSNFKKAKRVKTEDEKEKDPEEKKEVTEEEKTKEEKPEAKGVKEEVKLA
Procedure: as §1

Sequence of HDAC-3 (O15379 whole entry, species assumed): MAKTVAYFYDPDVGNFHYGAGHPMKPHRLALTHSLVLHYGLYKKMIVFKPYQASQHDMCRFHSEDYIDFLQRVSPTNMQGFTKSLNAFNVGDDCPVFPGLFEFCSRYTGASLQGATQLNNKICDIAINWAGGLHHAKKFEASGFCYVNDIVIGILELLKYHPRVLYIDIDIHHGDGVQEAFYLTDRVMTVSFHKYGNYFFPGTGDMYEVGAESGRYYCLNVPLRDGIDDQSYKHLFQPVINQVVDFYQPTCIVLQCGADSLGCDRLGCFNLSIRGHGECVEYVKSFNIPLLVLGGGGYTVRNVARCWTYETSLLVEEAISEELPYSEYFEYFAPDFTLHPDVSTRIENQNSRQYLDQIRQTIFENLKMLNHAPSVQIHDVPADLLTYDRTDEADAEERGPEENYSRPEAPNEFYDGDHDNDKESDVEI
Sequence of HDAC-3 (Q9Y618 395-489 partner limits assumed, species assumed): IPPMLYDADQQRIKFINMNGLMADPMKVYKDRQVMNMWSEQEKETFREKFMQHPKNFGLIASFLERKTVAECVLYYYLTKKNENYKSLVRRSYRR

IC50 (HDAC-3) | IC50 (HDAC-1) | Compound
7.51 µM | 0.0082 µM | CN(C(=O)C1(NC(=O)OCc2ccccc2)CC1)c1ccc(C(=O)Nc2cc(-c3ccc(F)cc3)ccc2N)cc1 [Example 9, Benzyl-1-((4-((2-amino-5-(4-Fluorophenyl)phenyl)carbamoyl)phenyl)(methyl)carbamoyl)cyclopropylcarbamate]
> 10 µM | 0.0267 µM | Nc1ccc(-c2ccc(Cl)s2)cc1NC(=O)c1ccc(NC(=O)C2(NC(=O)OCc3ccccc3)CC2)cc1 [Example 7, Benzyl-1-((4-((2-amino-5-(5-chlorothiophen-2-yl)phenyl)carbamoyl)phenyl)carbamoyl)cyclopropylcarbamate]
0.378 µM | 0.0447 µM | CC(C)(C)OC(=O)NC1(C(=O)Nc2ccc(C(=O)Nc3ccccc3N)cc2)CCCCC1 [Example 1, tert-Butyl-1-((4-((2-aminophenyl)carbamoyl)phenyl)carbamoyl)cyclohexyl carbamate]
0.482 µM | 0.0609 µM | CC(C)(C)OC(=O)NC1(C(=O)Nc2ccc(C(=O)Nc3ccccc3N)cc2)CCCC1 [Example 3, tert-Butyl-1((4-((2-aminophenyl)carbamoyl)phenyl)carbamoyl)cyclopentylcarbamate]
> 10 µM | 0.0052 µM | Nc1ccc(-c2ccc(F)cc2)cc1NC(=O)c1ccc(NC(=O)C2(N)CC2)cc1 [Example 10, N-(4-Amino-4′-fluorobiphenyl-3-yl)-4-(1-aminocyclopropanecarboxamido)benzamide]
> 10 µM | 0.009 µM | CC(C)(C)NC(=O)NC1(C(=O)Nc2ccc(C(=O)Nc3cc(-c4ccc(F)cc4)ccc3N)cc2)CC1 [Example 11, N-(4-amino-4′-fluorobiphenyl-3-yl)-4-(1-(3-tert-butylureido)cyclopropanecarboxamido)benzamide]
> 10 µM | 0.0074 µM | Nc1ccc(-c2ccc(F)cc2)cc1NC(=O)c1ccc(NC(=O)C2(NC(=O)OCc3ccccc3)CC2)cc1 [Example 6, Benzyl-1-((4-((2-amino-5-(4-fluorophenyl)phenyl)carbamoyl)phenyl)carbamoyl)cyclopropyl carbamate]
> 10 µM | 0.0056 µM | Nc1ccc(-c2cccs2)cc1NC(=O)c1ccc(NC(=O)C2(NC(=O)OCc3ccccc3)CC2)c(F)c1 [Example 8, Benzyl-1-((4-((2-amino-5-(thiophen-2-yl)phenyl)carbamoyl)-2-fluorophenyl)carbamoyl)cyclopropylcarbamate]
0.171 µM | 0.025 µM | Nc1ccccc1NC(=O)c1ccc(NC(=O)C2(NC(=O)OCc3ccccc3)CC2)cc1 [Example 4, Benzyl-1-((4-((2-aminophenyl)carbamoyl)phenyl)carbamoyl)cyclopropyl carbamate]
> 10 µM | 0.0034 µM | Nc1ccc(-c2cccs2)cc1NC(=O)c1ccc(NC(=O)C2(NC(=O)OCc3ccccc3)CC2)cc1 [Example 5, Benzyl-1-((4-((2-amino-5-(thiophen-2-yl)phenyl)carbamoyl)phenyl)carbamoyl)cyclopropyl carbamate]
0.378 µM | 0.0628 µM | CC(C)(C)OC(=O)NC1(C(=O)Nc2ccc(C(=O)Nc3ccccc3N)cc2)CC1 [Example 2, tert-Butyl-1-((4-((2-aminophenyl)carbamoyl)phenyl)carbamoyl)cyclopropyl carbamate]
